Experimental data from the supplement of paper PMC5908809.

How the values were obtained:
[1] = test system: normal NK cells expanded with K562-aAPC; experiment: percent inhibition of viability; higher = more inhibition; conditions: 72 h, IL-2 2.5 ng/mL
Description: (§1)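 Drug sensitivity and resistance testing on K562-aAPC-expanded normal NK cells: 5 concentrations (10-fold steps over a 10,000-fold range), 72 h at 37 °C, viability by CellTiter-Glo normalised to DMSO and benzethonium chloride controls; DSS from the fitted curve.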

DERL-7 (IL-2 2.5 ng/mL) [2] = experiment: as above; conditions: 72 h
IMC-1 (IL-2 20 ng/mL) [3] = experiment: as above; conditions: 72 h
KAI3 (IL-2 2.5 ng/mL) [4] = experiment: as above; conditions: 72 h
KHYG-1 (IL-2 2.5 ng/mL) [5] = experiment: as above; conditions: 72 h
NK-92 (IL-2 2.5 ng/mL) [6] = experiment: as above; conditions: 72 h
NK-YS (IL-2 2.5 ng/mL) [7] = experiment: as above; conditions: 72 h
NKL (IL-2 2.5 ng/mL) [8] = experiment: as above; conditions: 72 h
SNK-6 (IL-2 2.5 ng/mL) [9] = experiment: as above; conditions: 72 h
YT (IL-2 2.5 ng/mL) [10] = experiment: as above; conditions: 72 h
[11] = test system: normal primary NK cells, pool 1 (3 donors) (IL-2 2.5 ng/mL); experiment: as above; conditions: 72 h
[12] = test system: normal primary NK cells, pool 1 (3 donors), resting (IL-2 0 ng/mL); experiment: as above; conditions: 72 h
[13] = test system: normal primary NK cells, pool 2 (3 donors) (IL-2 2.5 ng/mL); experiment: as above; conditions: 72 h
[14] = test system: normal primary NK cells, pool 3 (3 donors) (IL-2 2.5 ng/mL); experiment: as above; conditions: 72 h
[15] = test system: normal NK cells expanded with K562-aAPC; experiment: drug sensitivity score (DSS) (DSS units); higher = more sensitive; extreme values may be limits of the assay; conditions: 72 h; IL-2 2.5 ng/mL
Description: as §1

DERL-7 (IL-2 2.5 ng/mL) [16] = experiment: as above; conditions: 72 h
IMC-1 (IL-2 20 ng/mL) [17] = experiment: as above; conditions: 72 h
KAI3 (IL-2 2.5 ng/mL) [18] = experiment: as above; conditions: 72 h
KHYG-1 (IL-2 2.5 ng/mL) [19] = experiment: as above; conditions: 72 h
NK-92 (IL-2 2.5 ng/mL) [20] = experiment: as above; conditions: 72 h
NK-YS (IL-2 2.5 ng/mL) [21] = experiment: as above; conditions: 72 h
NKL (IL-2 2.5 ng/mL) [22] = experiment: as above; conditions: 72 h
SNK-6 (IL-2 2.5 ng/mL) [23] = experiment: as above; conditions: 72 h
YT (IL-2 2.5 ng/mL) [24] = experiment: as above; conditions: 72 h
[25] = test system: normal primary NK cells, pool 1 (3 donors) (IL-2 2.5 ng/mL); experiment: as above; conditions: 72 h
[26] = test system: normal primary NK cells, pool 1 (3 donors), resting (IL-2 0 ng/mL); experiment: as above; conditions: 72 h
[27] = test system: normal primary NK cells, pool 2 (3 donors) (IL-2 2.5 ng/mL); experiment: as above; conditions: 72 h
[28] = test system: normal primary NK cells, pool 3 (3 donors) (IL-2 2.5 ng/mL); experiment: as above; conditions: 72 h

N#CC1(c2ccc(NC(=O)c3cccnc3NCc3ccncc3)cc2)CCCC1 [Apatinib] (max concentration tested 10000 nM)
percent inhibition of viability [%]
Conditions | 1 nM | 10 nM | 100 nM | 1000 nM | 10000 nM
DERL-7 (IL-2 2.5 ng/mL) [2] | -0.33 | -0.49 | -2.76 | -4.82 | 1.97
IMC-1 (IL-2 20 ng/mL) [3] | -6.4 | -0.28 | -6.01 | 0.8 | 2.01
KAI3 (IL-2 2.5 ng/mL) [4] | 3.83 | 2.76 | 6.74 | 10.3 | 12.3
KHYG-1 (IL-2 2.5 ng/mL) [5] | 4.44 | 2.43 | 2.62 | 6.69 | 19
NK-92 (IL-2 2.5 ng/mL) [6] | -3.67 | -7.24 | 2.24 | 10.8 | 52.7
NK-YS (IL-2 2.5 ng/mL) [7] | -1 | 2.11 | 4.05 | 9.52 | 12.6
NKL (IL-2 2.5 ng/mL) [8] | -16.2 | -14.6 | -14.8 | -14.5 | -12.3
SNK-6 (IL-2 2.5 ng/mL) [9] | 21 | 12.9 | 7.35 | 12.6 | 28.4
YT (IL-2 2.5 ng/mL) [10] | -0.29 | 0.42 | 2.63 | 7.54 | 7.83
[1] | -1.56 | -5.13 | -0.99 | 0.76 | 2.66
[11] | -14.6 | -10.1 | -4.55 | -2.69 | 6.98
[12] | -2.35 | 4.05 | 8.46 | 11.4 | 31.2
[13] | -4.33 | -2.31 | -5.54 | -1.25 | -5.6
[14] | -6.46 | -8.45 | -1.68 | -7.82 | 1.12

Conditions | drug sensitivity score
DERL-7 (IL-2 2.5 ng/mL) [16] | 0
IMC-1 (IL-2 20 ng/mL) [17] | 0
KAI3 (IL-2 2.5 ng/mL) [18] | 0.17
KHYG-1 (IL-2 2.5 ng/mL) [19] | 0.9
NK-92 (IL-2 2.5 ng/mL) [20] | 4.58
NK-YS (IL-2 2.5 ng/mL) [21] | 0.26
NKL (IL-2 2.5 ng/mL) [22] | 0
SNK-6 (IL-2 2.5 ng/mL) [23] | 0
YT (IL-2 2.5 ng/mL) [24] | 0
[15] | 0
[25] | 0
[26] | 2.45
[27] | 0
[28] | 0

COc1cc(OC)c(/C=C/S(=O)(=O)Cc2ccc(OC)c(NCC(=O)O)c2)c(OC)c1 [Rigosertib] (max concentration tested 10000 nM)
percent inhibition of viability [%]
Conditions | 1 nM | 10 nM | 100 nM | 1000 nM | 10000 nM
DERL-7 (IL-2 2.5 ng/mL) [2] | -3.53 | 3.03 | 91 | 98 | 97.8
IMC-1 (IL-2 20 ng/mL) [3] | -6.34 | -1.76 | 93.8 | 99.2 | 97.8
KAI3 (IL-2 2.5 ng/mL) [4] | -3.07 | 5.22 | 55 | 71.9 | 67.5
KHYG-1 (IL-2 2.5 ng/mL) [5] | -1.12 | -2.53 | 96.6 | 102 | 97.6
NK-92 (IL-2 2.5 ng/mL) [6] | -6.11 | 2.36 | 77.7 | 97.1 | 94.3
NK-YS (IL-2 2.5 ng/mL) [7] | -0.07 | 0.08 | 70.9 | 76.8 | 77.4
NKL (IL-2 2.5 ng/mL) [8] | -16.2 | -17.7 | 87.4 | 92.2 | 85.4
SNK-6 (IL-2 2.5 ng/mL) [9] | -14.2 | 3 | 76.5 | 95.2 | 97.2
YT (IL-2 2.5 ng/mL) [10] | -2.58 | 3.15 | 82.9 | 98.4 | 95.7
[1] | -1.17 | -9.48 | -1.76 | 57.7 | 82.7
[11] | -11.3 | -13.9 | -2.02 | 15.3 | 45.3
[12] | -8.83 | -4.84 | 6.87 | 37.8 | 69.8
[13] | -8.68 | -8.95 | -9.12 | 13.6 | 37.4
[14] | -13.6 | -15.7 | -12.6 | -0.93 | 21.3

Conditions | drug sensitivity score
DERL-7 (IL-2 2.5 ng/mL) [16] | 29.1
IMC-1 (IL-2 20 ng/mL) [17] | 29.3
KAI3 (IL-2 2.5 ng/mL) [18] | 20.3
KHYG-1 (IL-2 2.5 ng/mL) [19] | 29.8
NK-92 (IL-2 2.5 ng/mL) [20] | 26.8
NK-YS (IL-2 2.5 ng/mL) [21] | 23
NKL (IL-2 2.5 ng/mL) [22] | 26.7
SNK-6 (IL-2 2.5 ng/mL) [23] | 26.8
YT (IL-2 2.5 ng/mL) [24] | 27.8
[15] | 11.3
[25] | 4.54
[26] | 8.37
[27] | 3.7
[28] | 0.62
